For data set [1], the system named is Huh-7. The data set can be described thus: Cytotoxicity against human Huh-7 cells infected with luciferase expressing liver stage Plasmodium berghei ANKA assessed as reduction in cell viability at high doses measured after 44 hrs post infection by Cell-TiterFluor viability assay. It is filed as toxicity, cell-based. The note with it: huh-7, 44 h.
Data set [2] has as its system Plasmodium berghei. The data set can be described thus: Antimalarial activity against luciferase expressing liver stage Plasmodium berghei ANKA infected in human Huh-7 cells assessed as reduction in parasite load at 10 uM measured after 44 hrs post infection by Bright-glo reagent based luciferase reporter assay relative to control. In kind it is functional. Also noted: scale not given: the % may be the effect or the level left. (In a reporter assay the amount or activity of a reporter protein is the signal.)

Data set [3] concerns Plasmodium berghei. In words: Antimalarial activity against luciferase expressing liver stage Plasmodium berghei ANKA infected in human Huh-7 cells assessed as reduction in parasite load measured after 44 hrs post infection by Bright-glo reagent based luciferase reporter assay. In kind it is functional, organism-based. The note with it: Huh-7, 44 h.
A further data set addresses T1, HSP90 (Plasmodium falciparum 3D7, UniProt Q8IL32).
T1 sequence (Q8IL32 whole entry): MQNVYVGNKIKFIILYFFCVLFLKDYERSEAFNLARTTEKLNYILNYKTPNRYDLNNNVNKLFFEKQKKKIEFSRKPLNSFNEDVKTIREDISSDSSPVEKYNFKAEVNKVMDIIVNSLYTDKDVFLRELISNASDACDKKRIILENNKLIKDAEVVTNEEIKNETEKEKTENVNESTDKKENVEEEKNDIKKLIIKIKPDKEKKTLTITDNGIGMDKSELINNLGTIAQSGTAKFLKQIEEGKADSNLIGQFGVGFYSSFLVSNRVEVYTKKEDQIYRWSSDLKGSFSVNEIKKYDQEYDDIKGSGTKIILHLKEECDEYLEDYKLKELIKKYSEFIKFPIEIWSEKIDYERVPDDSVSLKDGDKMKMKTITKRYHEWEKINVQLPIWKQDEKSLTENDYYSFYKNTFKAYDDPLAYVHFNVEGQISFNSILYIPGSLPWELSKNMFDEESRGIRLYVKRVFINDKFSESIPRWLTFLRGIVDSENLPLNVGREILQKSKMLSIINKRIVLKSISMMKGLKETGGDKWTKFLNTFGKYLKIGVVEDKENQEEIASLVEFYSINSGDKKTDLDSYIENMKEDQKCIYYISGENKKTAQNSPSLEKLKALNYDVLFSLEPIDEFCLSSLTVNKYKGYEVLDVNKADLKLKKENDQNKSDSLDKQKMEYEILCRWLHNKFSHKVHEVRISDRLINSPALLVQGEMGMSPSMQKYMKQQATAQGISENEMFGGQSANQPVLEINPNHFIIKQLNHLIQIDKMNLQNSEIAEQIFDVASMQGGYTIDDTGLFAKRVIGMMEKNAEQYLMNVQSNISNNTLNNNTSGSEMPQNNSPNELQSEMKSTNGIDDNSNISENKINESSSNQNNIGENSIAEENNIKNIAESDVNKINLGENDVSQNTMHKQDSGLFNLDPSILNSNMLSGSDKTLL
In words: Inhibition of recombinant his-tagged Plasmodium falciparum Hsp90 GHKL domain expressed in Escherichia coli BL21 (DE3) cells by bis-ANS binding assay.

The test system of data set [4] is Huh-7. The data set can be described thus: Cytotoxicity against human Huh-7 cells infected with luciferase expressing liver stage Plasmodium berghei ANKA assessed as reduction in cell viability at 10 uM measured after 44 hrs post infection by Cell-TiterFluor viability assay relative to control. It is filed as toxicity, cell-based. Particulars: huh-7, 44 h.
In data set [5] the test system is Huh-7. The data set can be described thus: Cytotoxicity against human Huh-7 cells infected with luciferase expressing liver stage Plasmodium berghei ANKA assessed as reduction in cell viability upto 100 uM measured after 44 hrs post infection by Cell-TiterFluor viability assay. The note with it: huh-7, 44 h. In kind it is toxicity, cell-based.

As usually defined, the EC50 is the midpoint of the concentration-response curve. For `FC(F)(F)c1cccc(-c2nccc3c2[nH]c2ccc(Cl)cc23)c1`, the Activity result with Huh-7 [1] is listed as “Toxic”; in the data set on Plasmodium berghei [2], 15%. Moreover, in the data set with Plasmodium berghei [3], the concentration giving a half-maximal response (EC50) worked out at 5.2 µM.

`COc1ccc2c(c1)[nH]c1c(C3CC3)nccc12`: the Activity with Plasmodium berghei [2] was over 50%.

For the compound `c1ccc2c(c1)[nH]c1c(C3CC3)nccc12`, the Activity with Plasmodium berghei [2] is listed as over 50%.

With `COc1ccc2[nH]c3c(-c4ccccc4)nccc3c2c1`, the Activity in the data set on Plasmodium berghei [2] was over 50%.

As to `N#Cc1ccc(-c2nccc3c2[nH]c2ccccc23)cc1`, the Activity in the data set on Plasmodium berghei [2] is over 50%.

As usually defined, the IC50 is the concentration that gives 50% inhibition. As to `CC1NCCc2c1[nH]c1ccc(Cl)cc21` (stereo not drawn), on HSP90, the IC50 is 12.2 µM.

As to `c1ccc2c(c1)[nH]c1c(-c3ccsc3)nccc12`, the Activity is recorded as over 50% with Plasmodium berghei [2] and 78% in the data set on Huh-7 [4].

In the case of `O=C1C(O)=C([C@H]2CC[C@H](c3ccc(Cl)cc3)CC2)C(=O)c2ccccc21` [ATOVAQUONE], in the data set on Plasmodium berghei [3], the EC50 turned out to be 0.01 µM.

For `Clc1ccc2[nH]c3c(-c4ccccc4)nccc3c2c1`, the Activity with Plasmodium berghei [2] is reported as over 50%.

Regarding `c1cncc(-c2nccc3c2[nH]c2ccccc23)c1`, in the data set with Plasmodium berghei [2], the Activity was over 50%.

`Cc1cccc(-c2nccc3c2[nH]c2ccc(Cl)cc23)c1`: the Activity in the data set on Plasmodium berghei [2] is listed as 41%.

For the compound `COc1ccc(-c2nccc3c2[nH]c2ccccc23)cc1`, the Activity in the data set with Plasmodium berghei [2] is recorded as over 50%.

Take `Clc1cccc(-c2nccc3c2[nH]c2ccccc23)c1`: the Activity in the data set with Plasmodium berghei [2] is on record as over 50%.

For `Clc1cccc(-c2nccc3c2[nH]c2ccc(Cl)cc23)c1`, in the data set with Plasmodium berghei [2], the Activity is listed as over 50%.

Turning to `COc1cccc(-c2nccc3c2[nH]c2ccc(Cl)cc23)c1`, the Activity is reported as over 50% with Plasmodium berghei [2] and 78% in the data set with Huh-7 [4].

Take `FC(F)(F)c1ccc(-c2nccc3c2[nH]c2ccccc23)cc1`: the Activity in the data set on Plasmodium berghei [2] is recorded as 5.8%; in the data set on Huh-7 [5], “Non-Toxic”. The EC50 in the data set with Plasmodium berghei [3] was 5.2 µM.

`c1ccc2c(c1)[nH]c1cnccc12` [NORHARMANE]: the Activity with Plasmodium berghei [2] is reported as over 50%.
